# According to paper PMC4586642, “CYP450 Enzyme-Mediated Metabolism of TCAS and Its Inhibitory and Induced Effects on Metabolized Enzymes in Vitro” (International Journal of Environmental Research and Public …, 2015):
# Experiments:
# CYP1A = assay: Induction of CYP1A activity in sandwich-cultured rat hepatocytes (phenacetin probe); settings: 2.5 µM, 72 h
# Experimental: (§1) Rat primary hepatocytes were prepared according to a modified, two-step collagenase perfusion method. Viability of hepatocyte was determined by Trypan Blue exclusion. Only those hepatocyte preparations with viability greater than 90% were used for further studies. Hepatocyte suspensions were prepared with DMEM-F12 containing 10% FBS, 100 U/mL penicillin, 100 µg/mL streptomycin, 1 µM DEX and 4 µg/mL insulin. Then, hepatocyte suspensions were seeded into the pre-coated wells at a density of 1 × 10^6 cells/well in 24-well plates. […] Medium was changed daily. On day 4, the cultured hepatocytes were washed twice with Hank’s balanced salt solution containing 25 mM HEPES and incubated with 0.5 mL of the same buffer containing 50 μM phenacetin and 5 μM midazolam at 37 °C for 1h. At the end of incubation, 0.5 mL aliquots of the media were transferred to 1.5-mL test tubes and stored at −20 °C until analysis. All incubations were conducted in triplicate.
# (§2) Results were analyzed by a two-factor ANOVA. A p < 0.05 was considered statistically significant. […] Microsoft Excel (Microsoft, Redmond, WA, USA) was used to calculate IC50 estimates by linear transformation of the raw data. The data were corrected for both background and control activities.
# CYP3A = assay: Induction of CYP3A activity in sandwich-cultured rat hepatocytes (midazolam probe); settings: 1 mM, 72 h
# Experimental: as §1, §2
# CYP2B6 (2B6) = tested on: T1, CYP2B6 (2B6); assay: Inhibition of isoform-selective probe metabolism (phenacetin 1A2, tolbutamide 2C9, bupropion 2B6, dextromethorphan 2D6, midazolam 3A) in rat liver microsomes (0.4 mg/mL) with an NADPH-generating system, 0.5-500 uM TCAS, 30 min at 37 °C, LC-MS/MS readout.; format: biochemical; settings: SD, n = 3
# T1 construct: native enzyme in rat liver microsomes (RLMs)
# Experimental: (§3) The inhibitory effects of TCAS on the activities of CYP1A2, CYP2C9, CYP2D6, CYP2B6 and CYP3A were tested in RLMs and HLMs using probes selective for each isoform. The reaction probes used were as follows: phenacetin for CYP1A2; tolbutamide for CYP2C9; dextromethorphan for CYP2D6; midazolam for CYP3A and bupropion for CYP2B6. Incubation conditions specific to each isoform were linear with time, substrate, and protein concentrations as detailed in our previous studies. Isoform-specific substrate probes were incubated in duplicate at 37 °C with RLMs and HLMs and an NADPH-generating system in the absence (control) or presence of various concentrations (0.5, 1.5, 5, 15, 50, 100, and 500 µM) of TCAS. A 5-min pre-incubation was carried out before the reaction was initiated by adding 0.4 mg/mL of RLMs and HLMs. After incubation for 30 min, the reaction was terminated with 400 μL of ice-cold stop solution.
# (§4) Results were analyzed by a two-factor ANOVA. A p < 0.05 was considered statistically significant.
# CYP2C9 (2C9) = tested on: T2, CYP2C9 (2C9); assay: as above; format: biochemical; settings: SD, n = 3
# T2 construct: native enzyme in rat liver microsomes (RLMs)
# Experimental: as §3, §4
# CYP2D6 (2D6) = tested on: T3, CYP2D6 (2D6); assay: as above; format: biochemical; settings: SD, n = 3
# T3 construct: native enzyme in rat liver microsomes (RLMs)
# Experimental: as §3, §4
# CYP3A4 (3A4) = tested on: T4, CYP3A4 (3A4); assay: as above; format: biochemical; settings: SD, n = 3
# T4 construct: native enzyme in rat liver microsomes (RLMs)
# Experimental: as §3, §4
# CYP2C9 = CYP2C9 (Homo sapiens, UniProt P11712); assay: in vitro; settings: microsomes, pH 7.4
# Experimental: (§5) Inhibitor stock solutions prepared in appropriate solvents accounted for 0.4% organic solvent in the final incubation for 30 min at 37 °C with gentle shaking before stopping with 400 μL ice-cold stop solution (1:1 (v:v) mixture of acetonitrile and methanol) containing 50 ng/mL tolbutamide (IS). After vortexing for 30 seconds, and centrifugation at 16,000 g for 10 min, the supernatant was collected and analyzed by LC-MS/MS as described above. […] All incubations were conducted in triplicate.
# CYP1A2 = CYP1A2 (Homo sapiens, UniProt P05177); assay: TCAS incubation with human liver microsomes plus CYP1A2-selective inhibitor; settings: pH 7.4, probe TCAS (100 µM)
# Sequence of CYP1A2 (P05177 whole entry): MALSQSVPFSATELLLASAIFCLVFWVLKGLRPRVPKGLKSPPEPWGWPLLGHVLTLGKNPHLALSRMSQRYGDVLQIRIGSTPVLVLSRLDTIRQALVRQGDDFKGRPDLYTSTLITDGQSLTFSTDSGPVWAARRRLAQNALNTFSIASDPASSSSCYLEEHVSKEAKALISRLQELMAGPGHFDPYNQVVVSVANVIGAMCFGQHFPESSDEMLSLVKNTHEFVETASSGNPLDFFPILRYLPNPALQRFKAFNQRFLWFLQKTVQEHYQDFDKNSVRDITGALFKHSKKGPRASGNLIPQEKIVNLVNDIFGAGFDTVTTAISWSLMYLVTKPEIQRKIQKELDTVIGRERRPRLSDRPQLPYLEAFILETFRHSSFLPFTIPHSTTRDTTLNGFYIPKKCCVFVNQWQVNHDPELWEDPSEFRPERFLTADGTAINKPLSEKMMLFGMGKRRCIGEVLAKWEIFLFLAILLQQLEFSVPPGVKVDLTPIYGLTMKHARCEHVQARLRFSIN
# Experimental: as §5
# Sequence of CYP2C9 (P11712 whole entry): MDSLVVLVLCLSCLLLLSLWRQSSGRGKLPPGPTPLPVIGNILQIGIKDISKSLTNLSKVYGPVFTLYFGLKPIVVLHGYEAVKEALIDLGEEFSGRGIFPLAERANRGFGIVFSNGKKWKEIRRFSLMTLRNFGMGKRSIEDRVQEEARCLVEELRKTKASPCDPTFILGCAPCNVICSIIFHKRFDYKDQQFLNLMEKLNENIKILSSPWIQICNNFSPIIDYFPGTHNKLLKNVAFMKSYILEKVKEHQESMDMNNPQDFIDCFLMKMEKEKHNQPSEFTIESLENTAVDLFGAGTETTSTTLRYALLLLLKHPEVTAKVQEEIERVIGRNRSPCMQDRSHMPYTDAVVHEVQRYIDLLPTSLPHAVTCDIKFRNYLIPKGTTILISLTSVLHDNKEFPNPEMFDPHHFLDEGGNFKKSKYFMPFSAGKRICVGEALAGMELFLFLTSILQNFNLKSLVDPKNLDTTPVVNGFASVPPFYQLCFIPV
smiles,measurement,setting,value
"Cc1ccc2cc3c(ccc4ccccc43)c3c2c1CC3 [3-MC, 3-methylcholanthrene]",mean induction of CYP1A activity compared with control cells,CYP1A,23.8 fold
"CCC1(c2ccccc2)C(=O)NC(=O)NC1=O [PB, phenobarbital]",mean induction of CYP3A activity compared with control cells,CYP3A,5.1 fold
"O=S(=O)(O)c1cc2c(O)c(c1)Sc1cc(S(=O)(=O)O)cc(c1O)Sc1cc(S(=O)(=O)O)cc(c1O)Sc1cc(S(=O)(=O)O)cc(c1O)S2 [TCAS, Thiacalix[4]arene tetrasulfonate]",IC50,CYP2B6 (2B6),1700 ± 103 µM
same,IC50,CYP2C9 (2C9),383 ± 23.5 µM
same,IC50,CYP2D6 (2D6),196 ± 17.6 µM
same,IC50,CYP3A4 (3A4),2420 ± 235 µM
Nc1ccc(S(=O)(=O)Nc2ccnn2-c2ccccc2)cc1 [sulfaphenazole],"inhibition at 30 min, 60 µM",CYP2C9,51.7%
O=c1cc(-c2ccccc2)oc2c1ccc1ccccc12 [α-Naphthoflavone],"inhibition at 30 min, 6 µM",CYP1A2,54.9%
